Patent US20210063391A1, “METHODS AND SYSTEMS FOR BIOCELLULAR MARKER DETECTION AND DIAGNOSIS USING A MICROFLUIDIC PROFILING DEVICE” (The Regents of the University of Michigan, priority 2018, published 2021)

Columns and labels:
[1] = test system: p65; assay: Inflammation signature quantification of treated PBMC lysates by microfluidic immunoblotting (p-p65); format: cell-based; conditions: PBMCs treated 2 hours
Excerpt: (§1) An exemplary procedure for immunoblotting with a device of the present disclosure is as follows. A protein-containing sample is loaded into the wells of a gel (e.g., polyacrylamide gel) and proteins present in the sample are separated by gel electrophoresis (e.g., native gel electrophoresis, SDS-PAGE, etc.). A membrane (e.g., PVDF membrane) is placed atop the gel to allow transfer of the proteins onto the membrane. The membrane is then placed on a glass slide. A microfluidic device is placed on top of membrane, and the microfluidic channels are aligned with the protein lanes. Blocking buffer (e.g., Tween-20 and BSA) is optionally injected in each of the channels. In embodiments with a blocking step, the inlets/outlets of the channels are covered (e.g., with tape) to minimize evaporation during incubation. Antibodies are injected into the appropriate channels (e.g., different antibodies in each microchannel of a set). […]
(§2) FIGS. 2A-2B include representative graphs of inflammation signature quantification for PBMC lysates treated with LPS, Heparinase III and LPS+Heparinase III for 2 hours, according to one embodiment of the present disclosure. […]
(§3) FIGS. 3A-3B include representative graphs of inflammation signature quantification for PBMC lysates treated with Hyaluronidase (Hyal), Neuraminidase (Neu) and Spironolactone for 2 hours, according to one embodiment of the present disclosure. […]

[2] = test system: Stat1/3; assay: Inflammation signature quantification of treated PBMC lysates by microfluidic immunoblotting (p-Stat1, p-Stat3); format: cell-based
Excerpt: as §1, with “set). The inlets/outlets are covered (e.g., with tape) to minimize evaporation during incubation. Following incubation (e.g., 1 hours), the microfluidic device is removed, and the membrane is transferred to a solution of an appropriate secondary antibody (e.g., the membrane is left in this solution for 1 hour, or until the membrane is completely wet). The membrane is removed from the secondary antibody solution and washed with fresh blocking buffer (e.g., 3 minutes, 5 times each). The membrane is transferred to a developing solution (e.g., 30 minutes), and the membrane is removed and rinsed with DI water. The membrane is then allowed to dry.” for “set).”
as §2, §3

Q: Neuraminidase was tested. Which p65 activation ([1]; 0.25 U/mL Neuraminidase vs 2 U/mL Hyaluronidase and 100 μM Spironolactone) did it give?
A: Its p65 activation is “increases Stat1/3 and p65 activation as compare to Hyal and Spiro”.

Q: And the Stat1/3 activation ([2]; PBMCs treated 2 hours, 0.25 U/mL Neuraminidase vs 2 U/mL Hyaluronidase and 100 μM Spironolactone)?
A: Its Stat1/3 activation is “increases Stat1/3 and p65 activation as compare to Hyal and Spiro”.

Q: For Heparinase III, which p65 activation ([1]; 1.5 U/mL Heparinase III and/or 1 μg/ml LPS) is on record?
A: The p65 activation was “increases p65 activation though similar to LPS response”.

Q: And the “activation of Stat1/3” value ([2]; PBMCs treated 2 hours, 1.5 U/mL Heparinase III, compared with 1 μg/ml LPS)?
A: Its value is “leads to activation of Stat1/3, although not as much as LPS”.

Q: What about the “effect on LPS Stat1/3 response” value ([2]; PBMCs, 2 hours, Heparinase III 1.5 U/mL together with LPS 1 μg/ml) of the same substance?
A: Its value is “attenuates LPS Stat1/3 response when done together”.
